In patent publication US10874104B2, “Pesticidally active pryazole derivatives” (SYNGENTA PARTICIPATIONS AG, priority 2016, dated 2020):
Read-outs that look alike come from different tables or passages of the source.

What was measured:
Assay type in all cases: in vivo
[1] = test system: Diabrotica balteata (Corn Root Worm); assay: Diabrotica balteata (corn root worm), sprayed maize sprouts on agar, mortality; settings: 96 h, application rate 200 ppm, L2 larvae, 4 days after infestation, read-out: mortality
Method: Diabrotica balteata (Corn Root Worm):
Maize sprouts placed onto an agar layer in 24-well microtiter plates were treated with aqueous test solutions prepared from 10′000 ppm DMSO stock solutions by spraying. After drying, the plates were infested with L2 larvae (6 to 10 per well). The samples were assessed for mortality 4 days after infestation.

[2] = test system: Euschistus heros (Neotropical Brown Stink Bug); assay: Euschistus heros (neotropical brown stink bug), feeding/contact activity, mortality; settings: 120 h, application rate 200 ppm, N2 nymphs, 5 days after infestation, read-out: mortality
Method: Euschistus heros (Neotropical Brown Stink Bug): Feeding/contact activity
Soybean leaves on agar in 24-well microtiter plates were sprayed with aqueous test solutions prepared from 10′000 ppm DMSO stock solutions. After drying the leaves were infested with N2 nymphs. The samples were assessed for mortality 5 days after infestation.

[3] = test system: Myzus persicae (Green Peach Aphid); assay: Myzus persicae (green peach aphid), feeding/contact activity, mortality; settings: 144 h, application rate 200 ppm, aphid population of mixed ages, 6 days after infestation
Method: Myzus persicae (Green Peach Aphid): Feeding/Contact Activity
(§1) Sunflower leaf discs were placed onto agar in a 24-well microtiter plate and sprayed with aqueous test solutions prepared from 10′000 ppm DMSO stock solutions. After drying, the leaf discs were infested with an aphid population of mixed ages. The samples were assessed for mortality 6 days after infestation.

[4] = test system: Plutella xylostella (Diamond Back Moth); assay: Plutella xylostella (diamond back moth), feeding/contact activity on artificial diet, mortality; settings: 120 h, application rate 200 ppm, L2 larvae on artificial diet, 5 days after infestation, read-out: mortality
Method: Plutella xylostella (Diamond Back Moth): Feeding/Contact Activity
24-well microtiter plates with artificial diet were treated with aqueous test solutions prepared from 10′000 ppm DMSO stock solutions by pipetting. After drying, the plates were infested with L2 larvae (10 to 15 per well). The samples were assessed for mortality 5 days after infestation.

[5] = test system: Spodoptera littoralis (Egyptian Cotton Leaf Worm); assay: Spodoptera littoralis (Egyptian cotton leaf worm), feeding/contact activity, mortality; settings: 72 h, application rate 200 ppm, L1 larvae, 3 days after infestation, read-out: mortality
Method: Spodoptera littoralis (Egyptian Cotton Leaf Worm): Feeding/Contact Activity
Cotton leaf discs were placed onto agar in 24-well microtiter plates and sprayed with aqueous test solutions prepared from 10′000 ppm DMSO stock solutions. After drying the leaf discs were infested with five L1 larvae. The samples were assessed for mortality 3 days after infestation.

[6] = test system: Tetranychus urticae (Two-Spotted Spider Mite); assay: Tetranychus urticae (two-spotted spider mite), feeding/contact activity, mortality; settings: 192 h, application rate 200 ppm, mixed population (mobile stages), 8 days after infestation
Method: Tetranychus urticae (Two-Spotted Spider Mite): Feeding/Contact Activity
Bean leaf discs on agar in 24-well microtiter plates were sprayed with aqueous test solutions prepared from 10′000 ppm DMSO stock solutions. After drying the leaf discs were infested with a mite population of mixed ages. The samples were assessed for mortality on mixed population (mobile stages) 8 days after infestation.

[7] = test system: Thrips tabaci (Onion Thrips); assay: Thrips tabaci (onion thrips), feeding/contact activity, mortality; settings: 144 h, application rate 200 ppm, thrips population of mixed ages, 6 days after infestation, read-out: mortality
Method: Thrips tabaci (Onion Thrips): Feeding/Contact Activity
as §1, with “on” for “onto”, “in” for “in a”, “plates” for “plate”, “drying” for “drying,”, “a thrips” for “an aphid”

[8] = test system: Plutella xylostella (Diamond Back Moth, Larvicide L-2/3); assay: Biological comparison: insecticidal activity against Plutella xylostella, larvicide L-2/3, sprayed Chinese cabbage plants; settings: 120 h
Method: Biological Comparison Data:
Compound A is disclosed in WO2014/122083 as example (Ic-2) (p. 82, Table 3). The activities of compounds A is compared with the activities of compound 41 and 42, according to the present invention. The tests are carried out at different concentrations (ppm).
a) Insecticidal Activity Against Plutella xylostella (Diamond Back Moth, Larvicide L-2/3, Feeding/Contact)
Chinese cabbage plants are sprayed with diluted test solutions in an application chamber. 1 day after treatment, excised leaves are placed in petri dishes and infested with 10 L2 (2 replicates). Samples are checked 5 days after infestation for mortality, feeding behavior, and growth regulation.

[9] = concentration 0.0125 ppm, L2 larvae, 5 days after infestation, read-out: Mortality (%)
[10] = concentration 0.05 ppm, L2 larvae, 5 days after infestation, read-out: Mortality (%)
[11] = concentration 0.2 ppm, L2 larvae, 5 days after infestation, read-out: Mortality (%)
[12] = concentration 0.8 ppm, L2 larvae, 5 days after infestation, read-out: Mortality (%)

Cn1nc(C(F)(F)C(F)(F)F)c(OC(F)F)c1-n1cc(-c2cnc(Cl)c(C(=O)NC3CC3)c2)cn1 [Compound 22]
≥ 80%: mortality at 200 ppm [1] | mortality at 200 ppm [2] | mortality at 200 ppm [3] | mortality at 200 ppm [4] | mortality at 200 ppm [5] | mortality at 200 ppm [6] | mortality at 200 ppm [7]

CN(C(=O)c1cc(-c2cnn(-c3c(OC(F)F)c(C(F)(F)C(F)(F)F)nn3C)c2)ccc1Cl)C1(C#N)CC1 [Compound 41]
≥ 80%: mortality at 200 ppm [1] | mortality at 200 ppm [2] | mortality at 200 ppm [4] | mortality at 200 ppm [5] | mortality at 200 ppm [6] | mortality at 200 ppm [7]
100%: mortality at 0.05 ppm [8, 10] | mortality at 0.2 ppm [8, 11] | mortality at 0.8 ppm [8, 12]
90%: mortality at 0.0125 ppm [8, 9]

Cn1nc(C(F)(F)C(F)(F)F)c([S+]([O-])C2CC2)c1-n1cc(-c2ccc(Cl)c(C(=O)NC3CC3)c2)cn1 (stereo not drawn) [Compound 34]
≥ 80%: mortality at 200 ppm [1] | mortality at 200 ppm [2] | mortality at 200 ppm [3] | mortality at 200 ppm [4] | mortality at 200 ppm [5] | mortality at 200 ppm [6] | mortality at 200 ppm [7]

Cn1nc(C(F)(F)C(F)(F)F)c(SC2CC2)c1-n1cc(-c2ccc(Cl)c(C(=O)NC3(C#N)CC3)c2)cn1 [Compound 19]
≥ 80%: mortality at 200 ppm [1] | mortality at 200 ppm [2] | mortality at 200 ppm [3] | mortality at 200 ppm [4] | mortality at 200 ppm [5] | mortality at 200 ppm [6] | mortality at 200 ppm [7]

C=Cc1c(C(F)(F)C(F)(F)F)nn(C)c1-n1cc(-c2ccc(Cl)c(C(=O)NC3CC3)c2)cn1 [Compound 16, 2-Chloro-N-cyclopropyl-5-[1-[2-methyl-5-(1,1,2,2,2-pentafluoroethyl)-4-vinyl-pyrazol-3-yl]pyrazol-4-yl]benzamide]
≥ 80%: mortality at 200 ppm [1] | mortality at 200 ppm [2] | mortality at 200 ppm [3] | mortality at 200 ppm [4] | mortality at 200 ppm [5] | mortality at 200 ppm [6] | mortality at 200 ppm [7]

Cn1nc(C(F)(F)C(F)(F)F)c(SC2CC2)c1-n1cc(-c2ccc(Cl)c(C(=O)NC3CC3)c2)cn1 [Compound 20]
≥ 80%: mortality at 200 ppm [1] | mortality at 200 ppm [2] | mortality at 200 ppm [3] | mortality at 200 ppm [4] | mortality at 200 ppm [5] | mortality at 200 ppm [6] | mortality at 200 ppm [7]

CCN(C(=O)c1cc(-c2cnn(-c3c(OC(F)F)c(C(F)(F)C(F)(F)F)nn3C)c2)ccc1Cl)C1(C#N)CC1 [Compound 42]
≥ 80%: mortality at 200 ppm [1] | mortality at 200 ppm [2] | mortality at 200 ppm [3] | mortality at 200 ppm [4] | mortality at 200 ppm [5] | mortality at 200 ppm [6] | mortality at 200 ppm [7]
95%: mortality at 0.0125 ppm [8, 9]
100%: mortality at 0.05 ppm [8, 10] | mortality at 0.2 ppm [8, 11] | mortality at 0.8 ppm [8, 12]

Cn1nc(C(F)(F)C(F)(F)F)c(C(F)(F)F)c1-n1cc(-c2ccc(Cl)c(C(=O)NC3(C#N)CC3)c2)cn1 [Cpd A, reference compound]
100%: mortality at 0.2 ppm [8] | mortality at 0.8 ppm [8]
85%: mortality at 0.05 ppm [8]
35%: mortality at 0.0125 ppm [8]
